US20240376100A1 (Redona Therapeutics, Inc., priority 2021, published 2024)
Where a name gives a salt, the structure may show the parent alone.

The compounds below were run against PAPD5 enzyme (Homo sapiens, UniProt Q8NDF8) (assay: PAPD5 assay (AMP incorporation onto 3'-terminus of RNA substrate, fluorescence quench)). Conditions: PAPD5 protein 0.3 nM, ATP 50 μM, 30 minutes preincubation, room temperature; read-out: Potency PAPD5 IC50.
Chain of PAPD5 enzyme (Q8NDF8 whole entry): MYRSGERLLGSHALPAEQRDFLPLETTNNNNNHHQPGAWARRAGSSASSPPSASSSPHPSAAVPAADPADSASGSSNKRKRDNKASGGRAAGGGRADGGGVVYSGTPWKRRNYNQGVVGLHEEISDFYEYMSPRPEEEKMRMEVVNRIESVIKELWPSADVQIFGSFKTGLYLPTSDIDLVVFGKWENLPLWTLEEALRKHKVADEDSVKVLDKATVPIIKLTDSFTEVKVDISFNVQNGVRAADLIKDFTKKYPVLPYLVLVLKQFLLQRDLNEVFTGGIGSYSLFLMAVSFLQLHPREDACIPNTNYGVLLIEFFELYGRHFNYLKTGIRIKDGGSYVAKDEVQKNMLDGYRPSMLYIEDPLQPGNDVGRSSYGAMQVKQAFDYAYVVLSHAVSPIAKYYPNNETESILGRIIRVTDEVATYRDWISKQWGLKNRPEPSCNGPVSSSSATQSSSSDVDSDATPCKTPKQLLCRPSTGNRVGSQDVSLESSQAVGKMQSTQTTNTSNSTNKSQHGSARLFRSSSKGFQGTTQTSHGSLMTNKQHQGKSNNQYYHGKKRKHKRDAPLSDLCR
Assay type: biochemical
How it was run: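 Enzyme at 0.3 nM with 50 μM ATP, pH 7.3 HEPES buffer, preincubated with compound 30 minutes at room temperature; 5 nM 5′-fluorescein RNA substrate and 20 nM TAMRA quench probe then added. Initial rates from kinetic fluorescein decrease over ~90 minutes; IC50 by four-parameter fit.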
For CN1CCC(n2cc(C(=O)O)c(=O)c3cc(Cl)c(N4Cc5cccnc5C4)cc32)CC1 [Example 121, 6-chloro-7-(5,7-dihydro-6H-pyrrolo[3,4-b]pyridin-6-yl)-1-(1-methylpiperidin-4-yl)-4-oxo-1,4-dihydroquinoline-3-carboxylic acid], the IC50 was at most 1 µM. Compound CC(=O)N1CCC(Cn2cc(C(=O)O)c(=O)c3cc(Cl)c(N4Cc5cccnc5C4)cc32)CC1 [Example 122, 1-((1-acetylpiperidin-4-yl)methyl)-6-chloro-7-(5,7-dihydro-6H-pyrrolo[3,4-b]pyridin-6-yl)-4-oxo-1,4-dihydroquinoline-3-carboxylic acid] has an IC50 of at most 1 µM. Work on O=C(O)c1cn(C2CCNCC2)c2cc(N3Cc4cccnc4C3)c(Cl)cc2c1=O [Example 123, 6-chloro-7-(5,7-dihydro-6H-pyrrolo[3,4-b]pyridin-6-yl)-4-oxo-1-(piperidin-4-yl)-1,4-dihydroquinoline-3-carboxylic acid hydrochloride] yielded an IC50 of at most 1 µM. Cn1cc(Cn2cc(C(=O)O)c(=O)c3cc(Cl)c(N4Cc5cccnc5C4)cc32)cn1 [Example 124, 6-chloro-7-(5,7-dihydro-6H-pyrrolo[3,4-b]pyridin-6-yl)-1-((1-methyl-1H-pyrazol-4-yl)methyl)-4-oxo-1,4-dihydroquinoline-3-carboxylic acid] was tested, and the IC50 was at most 1 µM. COCCN1CCC(Cn2cc(C(=O)O)c(=O)c3cc(Cl)c(N4Cc5cccnc5C4)cc32)CC1 [Example 125, 6-chloro-7-(5,7-dihydro-6H-pyrrolo[3,4-b]pyridin-6-yl)-1-((1-(2-methoxyethyl)piperidin-4-yl)methyl)-4-oxo-1,4-dihydroquinoline-3-carboxylic acid hydrochloride] was tested, and the IC50 was at most 1 µM. In the case of CC(=O)N1CCC(n2cc(C(=O)O)c(=O)c3cc(Cl)c(N4Cc5cccnc5C4)cc32)CC1 [Example 126, 1-(1-acetylpiperidin-4-yl)-6-chloro-7-(5,7-dihydro-6H-pyrrolo[3,4-b]pyridin-6-yl)-4-oxo-1,4-dihydroquinoline-3-carboxylic acid], the IC50 is reported as at most 1 µM. CN(C)C(=O)N1CCC(Cn2cc(C(=O)O)c(=O)c3cc(Cl)c(N4Cc5cccnc5C4)cc32)CC1 [Example 129, 6-chloro-7-(5,7-dihydro-6H-pyrrolo[3,4-b]pyridin-6-yl)-1-((1-(dimethylcarbamoyl)piperidin-4-yl)methyl)-4-oxo-1,4-dihydroquinoline-3-carboxylic acid] gave an IC50 of at most 1 µM. Compound CN(C)C(=O)N1CCC(n2cc(C(=O)O)c(=O)c3cc(Cl)c(N4Cc5cccnc5C4)cc32)CC1 [Example 130, 6-chloro-7-(5,7-dihydro-6H-pyrrolo[3,4-b]pyridin-6-yl)-1-(1-(dimethylcarbamoyl)piperidin-4-yl)-4-oxo-1,4-dihydroquinoline-3-carboxylic acid] has an IC50 of at most 1 µM. With Cn1cnc(Cn2cc(C(=O)O)c(=O)c3cc(Cl)c(N4Cc5cccnc5C4)cc32)c1 [Example 131, 6-chloro-7-(5,7-dihydro-6H-pyrrolo[3,4-b]pyridin-6-yl)-1-((1-methyl-1H-imidazol-4-yl)methyl)-4-oxo-1,4-dihydroquinoline-3-carboxylic acid] the IC50 was at most 1 µM. In the case of COCCN(C)c1cc2c(cc1Cl)c(=O)c(C(=O)O)cn2-c1cnc(N)cc1C [Example 132, 1-(6-amino-4-methylpyridin-3-yl)-6-chloro-7-((2-methoxyethyl)(methyl)amino)-4-oxo-1,4-dihydroquinoline-3-carboxylic acid], the IC50 is reported as at most 1 µM. With COCCCN(C)c1cc2c(cc1Cl)c(=O)c(C(=O)O)cn2-c1cnc(N)cc1C [Example 133, 1-(6-amino-4-methylpyridin-3-yl)-6-chloro-7-((3-methoxypropyl)(methyl)amino)-4-oxo-1,4-dihydroquinoline-3-carboxylic acid] the IC50 was at most 1 µM. Compound COc1cc2c(=O)c(C(=O)O)cn(-c3cnc(NC(=O)OC(C)(C)C)cc3C)c2cc1N1Cc2cccnc2C1 [Example 135, 1-(6-((tert-butoxycarbonyl)amino)-4-methylpyridin-3-yl)-7-(5,7-dihydro-6H-pyrrolo[3,4-b]pyridin-6-yl)-6-methoxy-4-oxo-1,4-dihydroquinoline-3-carboxylic acid] has an IC50 of at most 1 µM. Cc1cc(NC(=O)OC(C)(C)C)ncc1-n1cc(C(=O)O)c(=O)c2ccc(N3Cc4cccnc4C3)cc21 [Example 136, 1-(6-((tert-butoxycarbonyl)amino)-4-methylpyridin-3-yl)-7-(5,7-dihydro-6H-pyrrolo[3,4-b]pyridin-6-yl)-4-oxo-1,4-dihydroquinoline-3-carboxylic acid] was tested, and the IC50 was at most 1 µM. CCN(CCOC)c1cc2c(cc1Cl)c(=O)c(C(=O)O)cn2-c1cnc(N)cc1C [Example 138, 1-(6-amino-4-methylpyridin-3-yl)-6-chloro-7-(ethyl(2-methoxyethyl)amino)-4-oxo-1,4-dihydroquinoline-3-carboxylic acid] gave an IC50 of at most 1 µM. For COc1cc2c(=O)c(C(=O)O)cn(-c3cnc(N)cc3C)c2cc1N1Cc2cccnc2C1 [Example 139, 1-(6-amino-4-methylpyridin-3-yl)-7-(5,7-dihydro-6H-pyrrolo[3,4-b]pyridin-6-yl)-6-methoxy-4-oxo-1,4-dihydroquinoline-3-carboxylic acid], the IC50 was at most 1 µM. Cc1cc(N)ncc1-n1cc(C(=O)O)c(=O)c2ccc(N3Cc4cccnc4C3)cc21 [Example 140, 1-(6-amino-4-methylpyridin-3-yl)-7-(5,7-dihydro-6H-pyrrolo[3,4-b]pyridin-6-yl)-4-oxo-1,4-dihydroquinoline-3-carboxylic acid] was tested, and the IC50 was at most 1 µM. Cc1cc2c(=O)c(C(=O)O)cn(-c3cnc(N)cc3C)c2cc1N1Cc2cccnc2C1 [Example 141] was tested, and the IC50 was at most 1 µM. Cc1cc2c(=O)c(C(=O)O)cn(-c3cnc(NC(=O)OC(C)(C)C)cc3C)c2cc1N1Cc2cccnc2C1 [Example 142, 1-(6-((tert-butoxycarbonyl)amino)-4-methylpyridin-3-yl)-7-(5,7-dihydro-6H-pyrrolo[3,4-b]pyridin-6-yl)-6-methyl-4-oxo-1,4-dihydroquinoline-3-carboxylic acid] was tested, and the IC50 was at most 1 µM. Work on COCCN(C)c1cc(C)c(-n2cc(C(=O)O)c(=O)c3cc(Cl)c(N4Cc5cccnc5C4)nc32)cn1 [Example 143, 6-chloro-7-(5,7-dihydro-6H-pyrrolo[3,4-b]pyridin-6-yl)-1-(6-((2-methoxyethyl)(methyl)amino)-4-methylpyridin-3-yl)-4-oxo-1,4-dihydro-1,8-naphthyridine-3-carboxylic acid] yielded an IC50 of at most 1 µM. Compound CCOc1cc2c(=O)c(C(=O)O)cn(-c3cnc(N)cc3C)c2cc1N1Cc2cccnc2C1 [Example 144, 1-(6-amino-4-methylpyridin-3-yl)-7-(5,7-dihydro-6H-pyrrolo[3,4-b]pyridin-6-yl)-6-ethoxy-4-oxo-1,4-dihydroquinoline-3-carboxylic acid] has an IC50 of at most 1 µM. In the case of Cc1cc(N(C)C)ncc1-n1cc(C(=O)O)c(=O)c2cc(Cl)c(N3Cc4cccnc4C3)nc21 [Example 146, 6-chloro-7-(5,7-dihydro-6H-pyrrolo[3,4-b]pyridin-6-yl)-1-(6-(dimethylamino)-4-methylpyridin-3-yl)-4-oxo-1,4-dihydro-1,8-naphthyridine-3-carboxylic acid], the IC50 is reported as at most 1 µM. With Cc1cc(N)ncc1-n1cc(C(=O)O)c(=O)c2cc(Cl)c(-n3ccc(N)n3)nc21 [Example 147, 7-(3-amino-1H-pyrazol-1-yl)-1-(6-amino-4-methylpyridin-3-yl)-6-chloro-4-oxo-1,4-dihydro-1,8-naphthyridine-3-carboxylic acid] the IC50 was at most 1 µM. In the case of CNc1ccn(-c2nc3c(cc2Cl)c(=O)c(C(=O)O)cn3-c2cnc(N)cc2C)n1 [Example 148, 1-(6-amino-4-methylpyridin-3-yl)-6-chloro-7-(3-(methylamino)-1H-pyrazol-1-yl)-4-oxo-1,4-dihydro-1,8-naphthyridine-3-carboxylic acid], the IC50 is reported as at most 1 µM. Compound CCOc1cc2c(=O)c(C(=O)O)cn(-c3cnc(NC(=O)OC(C)(C)C)cc3C)c2cc1N1Cc2cccnc2C1 [Example 149, 1-(6-((tert-butoxycarbonyl)amino)-4-methylpyridin-3-yl)-7-(5,7-dihydro-6H-pyrrolo[3,4-b]pyridin-6-yl)-6-ethoxy-4-oxo-1,4-dihydroquinoline-3-carboxylic acid] has an IC50 of at most 1 µM. With Cc1cc(NC(=O)OC(C)(C)C)ncc1-n1cc(C(=O)O)c(=O)c2cnc(N3Cc4cccnc4C3)cc21 [Example 150, 1-(6-((tert-butoxycarbonyl)amino)-4-methylpyridin-3-yl)-7-(5,7-dihydro-6H-pyrrolo[3,4-b]pyridin-6-yl)-4-oxo-1,4-dihydro-1,6-naphthyridine-3-carboxylic acid] the IC50 was at most 1 µM. Work on COCCNc1cc(C)c(-n2cc(C(=O)O)c(=O)c3cc(Cl)c(N4Cc5cccnc5C4)nc32)cn1 [Example 151, 6-chloro-7-(5,7-dihydro-6H-pyrrolo[3,4-b]pyridin-6-yl)-1-(6-((2-methoxyethyl)amino)-4-methylpyridin-3-yl)-4-oxo-1,4-dihydro-1,8-naphthyridine-3-carboxylic acid] yielded an IC50 of at most 1 µM. For Cc1cc(N)ncc1-n1cc(C(=O)O)c(=O)c2cc(Cl)c(-n3ccnc3)nc21 [Example 152, 1-(6-amino-4-methylpyridin-3-yl)-6-chloro-7-(1H-imidazol-1-yl)-4-oxo-1,4-dihydro-1,8-naphthyridine-3-carboxylic acid], the IC50 was at most 1 µM. For Cc1cc(N)ncc1-n1cc(C(=O)O)c(=O)c2cc(Cl)c(-n3cccn3)nc21 [Example 153, 1-(6-amino-4-methylpyridin-3-yl)-6-chloro-4-oxo-7-(1H-pyrazol-1-yl)-1,4-dihydro-1,8-naphthyridine-3-carboxylic acid], the IC50 was at most 1 µM. In the case of Cc1cc(N)ncc1-n1cc(C(=O)O)c(=O)c2ccc(N3Cc4cccnc4C3)c(F)c21 [Example 154, 1-(6-amino-4-methylpyridin-3-yl)-7-5,7-dihydro-6H-pyrrolo[3,4-b]pyridin-6-yl)-8-fluoro-4-oxo-1,4-dihydroquinoline-3-carboxylic acid hydrochloride], the IC50 is reported as at most 1 µM.
